pEC50, pIC50: −log10 of the molar value.

This note sets out measurements from US20240124460A1, “METHODS AND COMPOSITIONS FOR TARGETED PROTEIN DEGRADATION” (Ranok Therapeutics (Hangzhou) Co. Ltd., priority 2020, published 2024).

The subject of assay [1] is U-87 MG human glioblastoma. The experiment in a line: U87 MG CCK-8 proliferation assay. Format: cell-based. The settings on record: Homo sapiens, U-87 MG, 72 h, U-87 MG cells, read-out: U87MG CCK-8. In outline: (§1)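 Lines were maintained according to ATCC guidance. Compounds were then applied as a 3-fold titration from 20 μM to 1.02 nM, and proliferation was measured by CCK-8 absorbance, normalised to DMSO controls minus a no-cell blank.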
In general terms: Tetrazolium dyes change colour on reduction, which living cells bring about.

The target in the next assay is T1, HSP90α protein (Homo sapiens, UniProt P07900).
T1 construct: purchased BPS Bioscience #50298
The experiment in a line: HSP90α-binding FP (BODIPY) assay. Conditions: FP competition with BODIPY-labeled RNK04010. Put shortly: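 Fluorescence polarization measured competition with N-terminal human HSP90α, using either FITC-geldanamycin or BODIPY-labelled triazolone RNK04010 as tracer (5 nM final each). Compounds were tested in 2.5-fold dilutions from 20 μM to 5.2 nM, with incubation at 25 °C for 120 min (FITC) or 300 min (BODIPY).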

Assay [2] relates to MV-4-11 human acute myeloid leukemia. Briefly: MV-4-11 CCK-8 proliferation assay. The settings on record: Homo sapiens, MV4-11; MV-4-11 cells, 72 hr. Format: cell-based. In outline: as §1

As for `CCOc1cc(N2CCC(C(=O)N3CCC(CN4CCN(Cc5ccc(-n6c(C(=O)NC7(C)CC7)nnc6-c6cc(CC)c(O)cc6O)cc5)CC4)CC3)CC2)ccc1Nc1ncc2c(n1)N(S(C)(=O)=O)c1ccccc1C(=O)N2C` [Compound 083, 4-(4-((4-((1-(1-(3-ethoxy-4-((5-methyl-11-(methylsulfonyl)-6-oxo-6,11-dihydro-5H-benzo[e]pyrimido[5,4-b][1,4]diazepin-2-yl)amino)phenyl)piperidine-4-carbonyl)piperidin-4-yl)methyl)piperazin-1-yl)methyl)phenyl)-5-(5-ethyl-2,4-dihydroxyphenyl)-N-(1-methylcyclopropyl)-4H-1,2,4-triazole-3-carboxamide], the pEC50 in assay [1] and in assay [2] was over 7.00 throughout. Besides, at HSP90α protein, the pIC50 (as a rule, the IC50 on a negative log10 scale, so that one unit is a factor of ten) was over 7.00.

For `CCOc1cc(N2CCC(C(=O)N3CCC(CN4CCN(Cc5ccc(-n6c(C(=O)NC(CC)CC)nnc6-c6cc(CC)c(O)cc6O)cc5)CC4)CC3)CC2)ccc1Nc1ncc2c(n1)N(S(C)(=O)=O)c1ccccc1C(=O)N2C` [Compound 084, 4-(4-((4-((1-(1-(3-ethoxy-4-((5-methyl-11-(methylsulfonyl)-6-oxo-6,11-dihydro-5H-benzo[e]pyrimido[5,4-b][1,4]diazepin-2-yl)amino)phenyl)piperidine-4-carbonyl)piperidin-4-yl)methyl)piperazin-1-yl)methyl)phenyl)-5-(5-ethyl-2,4-dihydroxyphenyl)-N-(pentan-3-yl)-4H-1,2,4-triazole-3-carboxamide], the results for the pEC50 in assay [1] and in assay [2] were 6.00 to 7.00 and over 7.00, respectively. The molecule further showed a pIC50 on HSP90α protein of 6.00 to 7.00.

Regarding `CCOc1cc(N2CCC(C(=O)N3CCN(Cc4ccc(-n5c(O)nnc5-c5cc(C)c(O)cc5O)cc4)CC3)CC2)ccc1Nc1ncc2c(n1)N(S(C)(=O)=O)c1ccccc1C(=O)N2C` [Compound 085, 2-((4-(4-(4-(4-(3-(2,4-dihydroxy-5-methylphenyl)-5-hydroxy-4H-1,2,4-triazol-4-yl)benzyl)piperazine-1-carbonyl)piperidin-1-yl)-2-ethoxyphenyl)amino)-5-methyl-11-(methylsulfonyl)-5,11-dihydro-6H-benzo[e]pyrimido[5,4-b][1,4]diazepin-6-one], the pEC50 is 6.00 to 7.00 in assay [1] and over 7.00 in assay [2]. This molecule also gave a pIC50 on HSP90α protein of 6.00 to 7.00.

With `CCOc1cc(N2CCC(C(=O)N3CCN(Cc4ccc(-n5c(O)nnc5-c5cc(CC)c(O)cc5O)cc4)CC3)CC2)ccc1Nc1ncc2c(n1)N(S(C)(=O)=O)c1ccccc1C(=O)N2C` [Compound 086, 2-((2-ethoxy-4-(4-(4-(4-(3-(5-ethyl-2,4-dihydroxyphenyl)-5-hydroxy-4H-1,2,4-triazol-4-yl)benzyl)piperazine-1-carbonyl)piperidin-1-yl)phenyl)amino)-5-methyl-11-(methylsulfonyl)-5,11-dihydro-6H-benzo[e]pyrimido[5,4-b][1,4]diazepin-6-one], the figures for the pEC50 in assay [1] and in assay [2] were 6.00 to 7.00 and over 7.00, respectively. In addition, at HSP90α protein, the pIC50 was over 7.00.

On to `CCCc1cc(-c2nnc(O)n2-c2ccc(CN3CCN(C(=O)C4CCN(c5ccc(Nc6ncc7c(n6)N(S(C)(=O)=O)c6ccccc6C(=O)N7C)c(OCC)c5)CC4)CC3)cc2)c(O)cc1O` [Compound 087, 2-((4-(4-(4-(4-(3-(2,4-dihydroxy-5-propylphenyl)-5-hydroxy-4H-1,2,4-triazol-4-yl)benzyl)piperazine-1-carbonyl)piperidin-1-yl)-2-ethoxyphenyl)amino)-5-methyl-11-(methylsulfonyl)-5,11-dihydro-6H-benzo[e]pyrimido[5,4-b][1,4]diazepin-6-one], for which the pEC50 was 6.00 to 7.00 in assay [1] and over 7.00 in assay [2]. In addition, at HSP90α protein, the pIC50 is 6.00 to 7.00.

Turning to `CCOc1cc(N2CCC(C(=O)NCc3ccc(-n4c(O)nnc4-c4cc(CC)c(O)cc4O)cc3F)CC2)ccc1Nc1ncc2c(n1)N(S(C)(=O)=O)c1ccccc1C(=O)N2C` [Compound 088, 1-(3-ethoxy-4-((5-methyl-11-(methylsulfonyl)-6-oxo-6,11-dihydro-5H-benzo[e]pyrimido[5,4-b][1,4]diazepin-2-yl)amino)phenyl)-N-(4-(3-(5-ethyl-2,4-dihydroxyphenyl)-5-hydroxy-4H-1,2,4-triazol-4-yl)-2-fluorobenzyl)piperidine-4-carboxamide], the pEC50 was under 6.00 in assay [1] and 6.00 to 7.00 in assay [2]. This molecule gave a pIC50 on HSP90α protein of 6.00 to 7.00.

For the molecule `CCOc1cc(N2CCC(C(=O)NCc3ccc(-n4c(O)nnc4-c4cc(CC)c(O)cc4O)cc3C(F)(F)F)CC2)ccc1Nc1ncc2c(n1)N(S(C)(=O)=O)c1ccccc1C(=O)N2C` [Compound 089, 1-(3-ethoxy-4-((5-methyl-11-(methylsulfonyl)-6-oxo-6,11-dihydro-5H-benzo[e]pyrimido[5,4-b][1,4]diazepin-2-yl)amino)phenyl)-N-(4-(3-(5-ethyl-2,4-dihydroxyphenyl)-5-hydroxy-4H-1,2,4-triazol-4-yl)-2-(trifluoromethyl)benzyl)piperidine-4-carboxamide], the pEC50 in assay [1] was under 6.00; in assay [2], 6.00 to 7.00. At HSP90α protein, this molecule had a pIC50 of 6.00 to 7.00.

Regarding `CCCc1cc(-c2nnc(C(=O)NCCN3CCCCC3)n2-c2ccc(CN3CCN(CC4CCN(C(=O)C5CCN(c6ccc(Nc7ncc8c(n7)N(S(C)(=O)=O)c7ccccc7C(=O)N8C)c(OCC)c6)CC5)CC4)CC3)cc2)c(O)cc1O` [Compound 093, 5-(2,4-dihydroxy-5-propylphenyl)-4-(4-((4-((1-(1-(3-ethoxy-4-((5-methyl-11-(methylsulfonyl)-6-oxo-6,11-dihydro-5H-benzo[e]pyrimido[5,4-b][1,4]diazepin-2-yl)amino)phenyl)piperidine-4-carbonyl)piperidin-4-yl)methyl)piperazin-1-yl)methyl)phenyl)-N-(2-(piperidin-1-yl)ethyl)-4H-1,2,4-triazole-3-carboxamide], the pEC50 in assay [1] was under 6.00; in assay [2], 6.00 to 7.00. The molecule also gave a negative logarithm of the IC50 (pIC50) on HSP90α protein of over 7.00.

As for `CCOc1cc(N2CCC(C(=O)N3CCN(CCOc4ccc(Nc5cc(-n6nc(C(F)(F)F)c7c6CC(C)(C)CC7=O)ccc5C(N)=O)cc4)CC3)CC2)ccc1Nc1ncc2c(n1)N(S(C)(=O)=O)c1ccccc1C(=O)N2C` [Compound 094, 4-(6,6-dimethyl-4-oxo-3-(trifluoromethyl)-4,5,6,7-tetrahydro-1H-indazol-1-yl)-2-((4-(2-(4-(1-(3-ethoxy-4-((5-methyl-11-(methylsulfonyl)-6-oxo-6,11-dihydro-5H-benzo[e]pyrimido[5,4-b][1,4]diazepin-2-yl)amino)phenyl)piperidine-4-carbonyl)piperazin-1-yl)ethoxy)phenyl)amino)benzamide], the pEC50 in assay [1] was under 6.00; in assay [2] it was 6.00 to 7.00. At HSP90α protein, this molecule showed a pIC50 of 6.00 to 7.00.

Turning to `CCOc1cc(N2CCC(C(=O)NCCCNC(=O)O[C@H]3CC[C@H](Nc4cc(-n5nc(C(F)(F)F)c6c5CC(C)(C)CC6=O)ccc4C(N)=O)CC3)CC2)ccc1Nc1ncc2c(n1)N(S(C)(=O)=O)c1ccccc1C(=O)N2C` [Compound 095, (1R,4R)-4-((2-carbamoyl-5-(6,6-dimethyl-4-oxo-3-(trifluoromethyl)-4,5,6,7-tetrahydro-1H-indazol-1-yl)phenyl)amino)cyclohexyl (3-(1-(3-ethoxy-4-((5-methyl-11-(methylsulfonyl)-6-oxo-6,11-dihydro-5H-benzo[e]pyrimido[5,4-b][1,4]diazepin-2-yl)amino)phenyl)piperidine-4-carboxamido)propyl)carbamate], the pEC50 is under 6.00 in assay [1] and 6.00 to 7.00 in assay [2]. At HSP90α protein, the pIC50 is under 6.00.

In the case of `CCOc1cc(N2CCC(C(=O)N3CCC(Cc4ccc(CN(C)Cc5ccc(-n6c(C(=O)NCC(F)(F)F)nnc6-c6cc(CC)c(O)cc6O)cc5)cc4)CC3)CC2)ccc1Nc1ncc2c(n1)N(S(C)(=O)=O)c1ccccc1C(=O)N2C` [Compound 097, 4-(4-(((4-((1-(1-(3-ethoxy-4-((5-methyl-11-(methylsulfonyl)-6-oxo-6,11-dihydro-5H-benzo[e]pyrimido[5,4-b][1,4]diazepin-2-yl)amino)phenyl)piperidine-4-carbonyl)piperidin-4-yl)methyl)benzyl)(methyl)amino)methyl)phenyl)-5-(5-ethyl-2,4-dihydroxyphenyl)-N-(2,2,2-trifluoroethyl)-4H-1,2,4-triazole-3-carboxamide], the figures for the pEC50 in assay [1] and in assay [2] were under 6.00 and over 7.00, respectively. The molecule further gave a pIC50 at HSP90α protein of 6.00 to 7.00.

Turning to `CCOc1cc(N2CCC(C(=O)N3CCC(Cc4ccc(CN(C)Cc5ccc(-n6c(C(=O)NCC(F)(F)F)nnc6-c6cc(C)c(O)cc6O)cc5)cc4)CC3)CC2)ccc1Nc1ncc2c(n1)N(S(C)(=O)=O)c1ccccc1C(=O)N2C` [Compound 100, 5-(2,4-dihydroxy-5-methylphenyl)-4-(4-(((4-((1-(1-(3-ethoxy-4-((5-methyl-11-(methylsulfonyl)-6-oxo-6,11-dihydro-5H-benzo[e]pyrimido[5,4-b][1,4]diazepin-2-yl)amino)phenyl)piperidine-4-carbonyl)piperidin-4-yl)methyl)benzyl)(methyl)amino)methyl)phenyl)-N-(2,2,2-trifluoroethyl)-4H-1,2,4-triazole-3-carboxamide], the values for the pEC50 in assay [1] and in assay [2] were under 6.00 and 6.00 to 7.00, respectively. For the same molecule, at HSP90α protein, the pIC50 is under 6.00.
